What was measured:
bedstraw = assay: Test B pre/postemergence bedstraw; format: in vivo, Galium aparine
In short: (§1)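 Herbicidal effect was estimated by eye on a ten-point control scale after plants spent twelve to sixteen days in a greenhouse following soil or foliar treatment. Foliar sprays targeted plants at one to four leaves; all doses were formulated in a non-phytotoxic solvent with surfactant.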

blackgrass = assay: Test B pre/postemergence blackgrass; format: in vivo, Alopecurus myosuroides
In short: as §1

surinam grass = assay: Test B pre/postemergence surinam grass; format: in vivo, Brachiaria decumbens
In short: as §1

cocklebur = assay: Test B pre/postemergence cocklebur; format: in vivo, Xanthium strumarium
In short: as §1

giant foxtail = assay: Test B pre/postemergence giant foxtail; format: in vivo, Setaria faberii
In short: as §1

morningglory = assay: Test B pre/postemergence morningglory; format: in vivo, Ipomoea hederacea
In short: as §1

pigweed = assay: Test B pre/postemergence pigweed; format: in vivo, Amaranthus retroflexus
In short: as §1

rape = assay: Test B pre/postemergence rape; format: in vivo, Brassica napus
In short: as §1

soybean = assay: Test B pre/postemergence soybean; format: in vivo, Glycine max
In short: as §1

sugar beet = assay: Test B pre/postemergence sugar beet; format: in vivo, Beta vulgaris
In short: as §1

wheat = assay: Test B pre/postemergence wheat; format: in vivo, Triticum aestivum
In short: as §1

wild oat = assay: Test B pre/postemergence wild oat; format: in vivo, Avena fatua
In short: as §1

purple nutsedge = assay: Test B pre/postemergence purple nutsedge; format: in vivo, Cyperus rotundus
In short: as §1

[1] = Preemergence, Rate 62 g/ha, scale 0 to 10 (0 no effect, 10 complete control)
[2] = Preemergence, Rate 125 g/ha, 0 is no effect, 10 is complete control
[3] = Preemergence, Rate 250 g/ha, scale 0 to 10, 0 is no effect, 10 is complete control
[4] = Preemergence, Rate 500 g/ha, scale 0 to 10 (0 no effect, 10 complete control)
[5] = Rate 62 g/ha, Postemergence, scale of 0 to 10 where 0 is no effect and 10 is complete control
[6] = Rate 250 g/ha, Postemergence, scale 0 to 10, 0 is no effect, 10 is complete control
[7] = Postemergence, Rate 125 g/ha, scale of 0 to 10 where 0 is no effect and 10 is complete control
[8] = Rate 500 g/ha, Postemergence, scale 0 to 10

CCCn1c(=O)on(C(=O)N(c2ccc(F)cc2F)C(C)C)c1=O [Compound 130]
Bedstraw plant response rating (bedstraw; [1]): 0
Bedstraw plant response rating (0 to 10 scale) (bedstraw; [2]): 0
Bedstraw plant response rating (bedstraw; [3]): 2
Bedstraw plant response rating (bedstraw; [4]): 10
Bedstraw plant response rating (bedstraw; [5]): 0
Plant response rating, Bedstraw (bedstraw; [6]): 6
Bedstraw plant response rating (bedstraw; Rate 500 g/ha, Postemergence, scale 0 to 10, 0 no effect, 10 complete control): 8
Blackgrass plant response rating (blackgrass; [7]): 5
Blackgrass plant response rating (blackgrass; [1]): 5
Blackgrass plant response rating (0 to 10 scale) (blackgrass; [2]): 9
Blackgrass plant response rating (blackgrass; [3]): 9
Blackgrass plant response rating (blackgrass; [4]): 10
Blackgrass plant response rating (blackgrass; [5]): 3
Plant response rating, Blackgrass (blackgrass; [6]): 7
Blackgrass plant response rating (blackgrass; [8]): 8
B. signalgrass plant response rating (surinam grass; [7]): 2
B. signalgrass plant response rating (surinam grass; [1]): 6
B. signalgrass plant response rating (0 to 10 scale) (surinam grass; [2]): 9
B. signalgrass plant response rating (surinam grass; [3]): 9
B. signalgrass plant response rating (surinam grass; [4]): 9
B. signalgrass plant response rating (surinam grass; [5]): 1
Plant response rating, B. signalgrass (surinam grass; [6]): 7
B. signalgrass plant response rating (surinam grass; Rate 500 g/ha, Postemergence, scale of 0 to 10 where 0 is no effect and 10 is complete control): 8
Cocklebur plant response rating (cocklebur; [7]): 0
Cocklebur plant response rating (cocklebur; [1]): 0
Cocklebur plant response rating (0 to 10 scale) (cocklebur; [2]): 0
Cocklebur plant response rating (cocklebur; [3]): 0
Cocklebur plant response rating (cocklebur; [4]): 0
Cocklebur plant response rating (cocklebur; [5]): 0
Plant response rating, Cocklebur (cocklebur; [6]): 0
Cocklebur plant response rating (cocklebur; [8]): 3
Giant foxtail plant response rating (giant foxtail; [7]): 9
Giant foxtail plant response rating (giant foxtail; [1]): 7
Giant foxtail plant response rating (0 to 10 scale) (giant foxtail; [2]): 9
Giant foxtail plant response rating (giant foxtail; [3]): 10
Giant foxtail plant response rating (giant foxtail; [4]): 10
Giant foxtail plant response rating (giant foxtail; [5]): 8
Plant response rating, Giant foxtail (giant foxtail; [6]): 9
Giant foxtail plant response rating (giant foxtail; [8]): 9
Morningglory plant response rating (morningglory; [7]): 2
Morningglory plant response rating (morningglory; [1]): 0
Morningglory plant response rating (0 to 10 scale) (morningglory; [2]): 0
Morningglory plant response rating (morningglory; [3]): 3
Morningglory plant response rating (morningglory; [4]): 4
Morningglory plant response rating (morningglory; [5]): 2
Plant response rating, Morningglory (morningglory; [6]): 2
Morningglory plant response rating (morningglory; [8]): 3
Redroot pigweed plant response rating (pigweed; [7]): 3
Redroot pigweed plant response rating (pigweed; [1]): 6
Redroot pigweed plant response rating (0 to 10 scale) (pigweed; [2]): 10
Redroot pigweed plant response rating (pigweed; [3]): 10
Redroot pigweed plant response rating (pigweed; [4]): 10
Redroot pigweed plant response rating (pigweed; [5]): 0
Plant response rating, Redroot pigweed (pigweed; [6]): 3
Redroot pigweed plant response rating (pigweed; [8]): 6
Rape plant response rating (rape; [7]): 2
Rape plant response rating (rape; [1]): 4
Rape plant response rating (0 to 10 scale) (rape; [2]): 9
Rape plant response rating (rape; [3]): 10
Rape plant response rating (rape; [4]): 10
Rape plant response rating (rape; [5]): 0
Rape plant response rating (rape; [8]): 2
Soybean plant response rating (soybean; [7]): 2
Soybean plant response rating (soybean; [1]): 0
Soybean plant response rating (0 to 10 scale) (soybean; [2]): 0
Soybean plant response rating (soybean; [3]): 3
Soybean plant response rating (soybean; [4]): 4
Soybean plant response rating (soybean; [5]): 1
Plant response rating, Soybean (soybean; [6]): 3
Soybean plant response rating (soybean; [8]): 5
Sugarbeets plant response rating (sugar beet; [7]): 0
Sugarbeets plant response rating (sugar beet; [1]): 7
Sugarbeets plant response rating (0 to 10 scale) (sugar beet; [2]): 9
Sugarbeets plant response rating (sugar beet; [3]): 10
Sugarbeets plant response rating (sugar beet; [4]): 10
Sugarbeets plant response rating (sugar beet; [5]): 0
Plant response rating, Sugarbeets (sugar beet; [6]): 2
Sugarbeets plant response rating (sugar beet; [8]): 4
Wheat plant response rating (wheat; [7]): 1
Wheat plant response rating (wheat; [1]): 2
Wheat plant response rating (0 to 10 scale) (wheat; [2]): 3
Wheat plant response rating (wheat; [4]): 4
Wheat plant response rating (wheat; [5]): 0
Plant response rating, Wheat (wheat; [6]): 3
Wheat plant response rating (wheat; [8]): 8
Wild oats plant response rating (wild oat; [7]): 2
Wild oats plant response rating (wild oat; [1]): 7
Wild oats plant response rating (0 to 10 scale) (wild oat; [2]): 8
Wild oats plant response rating (wild oat; [3]): 10
Wild oats plant response rating (wild oat; [4]): 10
Wild oats plant response rating (wild oat; [5]): 0
Plant response rating, Wild oats (wild oat; [6]): 5
Wild oats plant response rating (wild oat; [8]): 8
Nutsedge plant response rating (purple nutsedge; [7]): 0
Nutsedge plant response rating (purple nutsedge; [1]): 0
Nutsedge plant response rating (0 to 10 scale) (purple nutsedge; [2]): 0
Nutsedge plant response rating (purple nutsedge; [3]): 0
Nutsedge plant response rating (purple nutsedge; [4]): 3
Nutsedge plant response rating (purple nutsedge; [5]): 0
Plant response rating, Nutsedge (purple nutsedge; [6]): 0
Nutsedge plant response rating (purple nutsedge; [8]): 0

Reference: US6737383B1, “Herbicidal oxadiazolidines” (priority 1999, dated 2004)
